Laboratory results from paper PMC7044277 (Nature Communications, 2020).
“And” between values parts separate entries of the source, which are not always exact repeats. Equal values may be shown once.

Experiments:
[1] = biological target: T1, DRD4 (D4.4 variant) wild-type (Homo sapiens, UniProt P21917); test: Radioligand competition binding, [3H]-N-methylspiperone; settings: DRD4; [3H]-methylspiperone (0.8-1.0 nM); read-out: Ki
T1 sequence (P21917 1-419): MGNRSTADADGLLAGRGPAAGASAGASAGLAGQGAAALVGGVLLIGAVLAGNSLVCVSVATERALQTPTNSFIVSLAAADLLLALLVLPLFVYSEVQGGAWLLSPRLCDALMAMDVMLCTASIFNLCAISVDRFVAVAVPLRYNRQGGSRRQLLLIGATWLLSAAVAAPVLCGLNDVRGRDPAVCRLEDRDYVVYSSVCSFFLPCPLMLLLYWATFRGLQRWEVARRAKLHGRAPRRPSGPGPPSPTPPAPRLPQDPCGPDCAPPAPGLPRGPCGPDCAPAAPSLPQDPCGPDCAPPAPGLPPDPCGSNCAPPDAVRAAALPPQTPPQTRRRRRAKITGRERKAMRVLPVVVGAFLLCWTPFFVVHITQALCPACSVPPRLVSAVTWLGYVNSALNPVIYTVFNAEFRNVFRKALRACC

DRD3 wild-type = DRD3 wild-type (Homo sapiens, UniProt P35462); test: as above; settings: DRD3 wild-type; read-out: pKi ± SEM (converted)
[2] = biological target: DRD2 (D2 long receptor) wild-type (Homo sapiens, UniProt P14416); test: Radioligand competition binding, [3H]-N-methylspiperone, HEK293T membranes; settings: DRD2; [3H]-methylspiperone (0.8-1.0 nM); read-out: Ki
DRD2 (D2 long receptor) = DRD2 (D2 long receptor) (Homo sapiens, UniProt P14416); test: Gαi/o-mediated cAMP inhibition (GloSensor split-luciferase cAMP reporter), HEK293T; format: cell-based; settings: DRD2; antagonist, Gαi/o-mediated cAMP inhibition; read-out: EC50 ± SEM (antagonist);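 note: compounds applied 15 min at room temperature, then luciferin plus 400 nM isoproterenol to raise cAMP through endogenous β2-adrenergic receptors, luminescence read 15 min later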
5HT7A = biological target: T2, 5HT7A (Homo sapiens, UniProt P34969); test: β-arrestin2 recruitment (Tango); format: cell-based; settings: Fig_S10q, agonist mode
T2 construct: expressed in transfected cells; host or cells: HTLA cells expressing TEV-fused β-arrestin2

5HT6 = biological target: T3, 5HT6 (Homo sapiens, UniProt P50406); test: β-arrestin2 recruitment (Tango); format: cell-based; settings: Fig_S10p, agonist mode
T3 construct: expressed in transfected cells; host or cells: HTLA cells expressing TEV-fused β-arrestin2

DRD1 = DRD1 (Homo sapiens, UniProt P21728); test: β-arrestin2 recruitment (Tango); format: cell-based; settings: agonist mode
DRD5 = DRD5 (Homo sapiens, UniProt P21918); test: β-arrestin2 recruitment (Tango); format: cell-based; settings: Fig_S10e, single replicates
Sequence of DRD5 (P21918 whole entry): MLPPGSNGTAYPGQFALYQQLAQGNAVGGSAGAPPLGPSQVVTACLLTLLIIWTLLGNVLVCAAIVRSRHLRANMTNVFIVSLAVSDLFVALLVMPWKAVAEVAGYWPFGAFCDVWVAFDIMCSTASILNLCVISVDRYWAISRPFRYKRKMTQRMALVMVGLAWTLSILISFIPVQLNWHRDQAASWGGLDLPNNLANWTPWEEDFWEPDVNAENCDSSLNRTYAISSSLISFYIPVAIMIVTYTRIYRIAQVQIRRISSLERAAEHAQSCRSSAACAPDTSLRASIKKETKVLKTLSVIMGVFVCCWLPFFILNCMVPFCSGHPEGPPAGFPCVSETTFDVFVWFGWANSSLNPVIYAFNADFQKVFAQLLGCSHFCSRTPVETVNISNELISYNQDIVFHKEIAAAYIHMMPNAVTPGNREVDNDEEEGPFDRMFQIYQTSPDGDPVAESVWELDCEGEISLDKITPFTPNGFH

Sequence of DRD1 (P21728 whole entry): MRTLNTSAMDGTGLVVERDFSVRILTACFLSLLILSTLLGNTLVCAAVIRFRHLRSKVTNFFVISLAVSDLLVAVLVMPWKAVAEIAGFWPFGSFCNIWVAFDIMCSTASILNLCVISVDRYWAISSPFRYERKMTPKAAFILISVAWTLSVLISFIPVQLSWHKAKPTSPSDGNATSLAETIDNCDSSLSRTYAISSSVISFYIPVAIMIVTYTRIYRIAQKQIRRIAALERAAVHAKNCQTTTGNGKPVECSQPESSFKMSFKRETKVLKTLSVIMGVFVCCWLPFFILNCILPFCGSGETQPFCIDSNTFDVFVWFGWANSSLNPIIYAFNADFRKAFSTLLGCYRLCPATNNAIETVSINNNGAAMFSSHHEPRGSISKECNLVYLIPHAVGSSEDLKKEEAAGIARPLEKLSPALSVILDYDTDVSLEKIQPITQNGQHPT
T2 sequence (P34969 1-445 isoform P34969-2): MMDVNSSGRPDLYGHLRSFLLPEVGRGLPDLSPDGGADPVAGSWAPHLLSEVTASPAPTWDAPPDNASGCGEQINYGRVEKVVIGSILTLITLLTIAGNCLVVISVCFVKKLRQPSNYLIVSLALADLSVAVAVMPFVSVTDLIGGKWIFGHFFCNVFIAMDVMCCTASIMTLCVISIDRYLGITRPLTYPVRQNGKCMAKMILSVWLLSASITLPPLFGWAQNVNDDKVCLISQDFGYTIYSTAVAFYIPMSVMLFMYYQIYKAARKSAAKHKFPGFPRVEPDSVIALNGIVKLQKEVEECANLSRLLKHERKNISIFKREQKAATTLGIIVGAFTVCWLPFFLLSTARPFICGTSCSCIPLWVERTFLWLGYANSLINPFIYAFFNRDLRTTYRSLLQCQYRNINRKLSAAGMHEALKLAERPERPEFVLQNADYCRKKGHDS
T3 sequence (P50406 whole entry, the tested form may be a part): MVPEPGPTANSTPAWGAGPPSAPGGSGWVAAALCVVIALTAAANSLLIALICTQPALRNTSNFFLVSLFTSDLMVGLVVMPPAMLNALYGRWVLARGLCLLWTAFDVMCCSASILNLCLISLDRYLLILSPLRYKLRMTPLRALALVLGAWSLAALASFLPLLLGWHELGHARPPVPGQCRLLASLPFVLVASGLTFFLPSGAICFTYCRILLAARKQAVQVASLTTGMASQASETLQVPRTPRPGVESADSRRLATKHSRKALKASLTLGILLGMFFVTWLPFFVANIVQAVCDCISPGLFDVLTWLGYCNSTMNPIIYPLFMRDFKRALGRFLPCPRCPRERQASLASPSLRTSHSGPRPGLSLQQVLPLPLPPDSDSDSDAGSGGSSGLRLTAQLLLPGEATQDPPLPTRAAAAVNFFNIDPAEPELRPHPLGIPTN
Sequence of DRD2 (D2 long receptor) wild-type (P14416 whole entry): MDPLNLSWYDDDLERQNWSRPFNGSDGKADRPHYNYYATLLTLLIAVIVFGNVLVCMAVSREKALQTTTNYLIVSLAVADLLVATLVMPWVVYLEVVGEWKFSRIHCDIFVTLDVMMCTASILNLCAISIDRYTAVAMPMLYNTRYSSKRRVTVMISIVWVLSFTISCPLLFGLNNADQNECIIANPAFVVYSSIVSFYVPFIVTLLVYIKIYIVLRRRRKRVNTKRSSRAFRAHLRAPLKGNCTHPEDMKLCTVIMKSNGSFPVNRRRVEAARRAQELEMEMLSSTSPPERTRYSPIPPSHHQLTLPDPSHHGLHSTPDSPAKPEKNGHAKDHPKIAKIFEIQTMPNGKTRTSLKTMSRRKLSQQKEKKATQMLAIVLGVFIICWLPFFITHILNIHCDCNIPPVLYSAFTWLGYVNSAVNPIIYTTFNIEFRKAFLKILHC
Sequence of DRD2 (D2 long receptor) (P14416 whole entry): as above
Sequence of DRD3 wild-type (P35462 whole entry): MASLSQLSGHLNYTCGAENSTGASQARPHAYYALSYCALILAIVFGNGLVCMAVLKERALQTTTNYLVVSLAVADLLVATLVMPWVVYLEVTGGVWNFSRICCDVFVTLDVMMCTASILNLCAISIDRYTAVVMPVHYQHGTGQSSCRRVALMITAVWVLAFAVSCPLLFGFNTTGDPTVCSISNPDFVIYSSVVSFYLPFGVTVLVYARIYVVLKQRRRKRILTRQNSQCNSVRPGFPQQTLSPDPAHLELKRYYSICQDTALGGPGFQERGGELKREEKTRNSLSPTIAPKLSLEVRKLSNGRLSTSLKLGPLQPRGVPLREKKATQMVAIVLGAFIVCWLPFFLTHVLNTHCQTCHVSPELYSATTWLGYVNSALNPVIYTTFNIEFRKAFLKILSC

CCCCN(C)C(C)C(=O)Nc1cc([N+](=O)[O-])ccc1OC (stereo not drawn) [O9LE9]
Ki [1]: > 10 µM
Ki (DRD3 wild-type): 0.214 µM
Ki [2]: 3.8 µM
EC50 (DRD2 (D2 long receptor)): 3.55 ± 0.295 µM

CC[C@@H](CO)NC(=O)[C@@H]1C=C2c3cccc4[nH]cc(c34)C[C@H]2N(C)C1 [methylergonovine]
β-arrestin2 recruitment response, replicate points of concentration-response curve (5HT7A; Log[Drug] -8.52): 57.2072 and 62.1985 and 0.2034 and 43.345 and 17.0227 and 39.6469 and 24.6535 and -5.393 and 3.158
β-arrestin2 recruitment response, replicate points of concentration-response curve (5HT7A; Log[Drug] -9): 28.3493 and 32.0982 and 22.9584 and 37.3511 and 39.7632 and 14.7559 and 9.616 and 19.0912 and 1.923
β-arrestin2 recruitment response, replicate points of concentration-response curve (5HT7A; Log[Drug] -9.52): -6.008 and 0.109 and 1.017 and 1.4676 and 14.0366 and 7.578 and 5.289 and -11.615 and 5.562
β-arrestin2 recruitment response, replicate points of concentration-response curve (5HT7A; Log[Drug] -10): -3.669 and 16.1145 and 7.694 and 15.3008 and -0.2833 and 45.4083 and 32.224 and 8.8715 and 2.743
β-arrestin2 recruitment response, replicate points of concentration-response curve (5HT7A; Log[Drug] -10.52): 10.5565 and 33.0718 and 2.739 and 13.5571 and -3.967 and -24.3897 and -1.32 and -17.1773 and 11.1342
β-arrestin2 recruitment response, replicate points of concentration-response curve (5HT7A; Log[Drug] -11): -4.984 and -18.2941 and -15.3444 and 8.733 and -19.8489 and 29.4754 and -10.9833 and -5.732 and 20.4393
β-arrestin2 recruitment response, replicate points of concentration-response curve (5HT7A; Log[Drug] -11.52): -6.553 and -20.7643 and -12.3583 and 13.7605 and -14.4653 and -10.5493 and -19.7417 and -12.1995 and -5.987
β-arrestin2 recruitment response, replicate points of concentration-response curve (5HT7A; Log[Drug] -12): 42.2988 and -7.374 and -17.7056 and -12.5618 and -4.708 and 17.4441 and -2.395 and 25.3135 and 14.3302
β-arrestin2 recruitment response, replicate points of concentration-response curve (5HT6; Log[Drug] -7.52): 58.3654 and 42.8218 and 40.7735 and 42.4938 and 47.6018 and 32.15
β-arrestin2 recruitment response, replicate points of concentration-response curve (5HT6; Log[Drug] -8): 38.2178 and 17.1349 and 29.2946 and 27.8088 and 40.0294 and 64.9029 and 31.7107 and 61.5077 and 39.0249 and 30.4136
β-arrestin2 recruitment response, replicate points of concentration-response curve (5HT6; Log[Drug] -8.52): 30.1013 and 10.6993 and 18.1498 and 24.4245 and 28.031 and 15.5168 and 0.8374 and 22.4349 and 11.5027 and 21.7874 and 10.2907 and 27.3285
β-arrestin2 recruitment response, replicate points of concentration-response curve (5HT6; Log[Drug] -9): 20.3729 and 3.9604 and 2.141 and 7.952 and 0.7859 and 8.081 and -4.077 and -4.555 and -0.4693 and 35.6884 and 0.3477 and 9.366
β-arrestin2 recruitment response, replicate points of concentration-response curve (5HT6; Log[Drug] -9.52): 14.1022 and -2.488 and 4.171 and 24.8948 and 4.829 and 2.461 and 0.773 and -7.38 and -5.613 and 10.7938 and 2.907 and -1.524
β-arrestin2 recruitment response, replicate points of concentration-response curve (5HT6; Log[Drug] -10): 15.029 and -5.149 and -2.667 and -0.08663 and 7.1866 and 6.531 and -8.448 and -13.3063 and 14.3186 and 3.129 and -2.7225 and -5.682
β-arrestin2 recruitment response, replicate points of concentration-response curve (5HT6; Log[Drug] -10.52): 3.317 and 8.465 and -0.4579 and 0.09901 and 5.631 and 26.1232 and -3.267 and -10.7113 and 5.834 and 27.1732 and 9.063 and 0.5697
β-arrestin2 recruitment response, replicate points of concentration-response curve (5HT6; Log[Drug] -11): 5.777 and -4.208 and -3.1745 and 6.856 and 4.8832 and -1.2628 and -4.113 and -7.095 and -5.0704 and 3.773 and -2.7003 and -4.128
β-arrestin2 recruitment response, replicate points of concentration-response curve (5HT6; Log[Drug] -11.52): -0.7317 and 4.554 and -0.9344 and -1.6151 and 0.5528 and 0.3631 and 17.5761 and 19.5362 and 55.6731 and -3.662 and -4.713 and -3.3

Oc1ccc2c(c1O)Oc1cccc3c1C2CNC3 (stereo not drawn) [dinoxyline]
Fig_S10d concentration-response source data, compound alone (replicates) (DRD1; Log[Drug] -6.52): 10.0073
Fig_S10d concentration-response source data, compound alone (replicates) (DRD1; Log[Drug] -7): 4.307 and 1.205 and 1.227 and 4.484 and 2.979 and 2.557 and 2.04 and -0.1301 and 1.092
Fig_S10d concentration-response source data, compound alone (replicates) (DRD1; Log[Drug] -7.52): 1.579 and 3.303 and 0.5491 and 3.089 and 1.082 and 1.378 and -0.7612 and -0.8315 and -0.809
Fig_S10d concentration-response source data, compound alone (replicates) (DRD1; Log[Drug] -8): 1.257 and 1.231 and 1.566 and 0.913 and 0.3538 and 0.1991 and -0.676 and -1.057 and 0.2893
Fig_S10d concentration-response source data, compound alone (replicates) (DRD1; Log[Drug] -8.52): 0.2231 and 2.08 and 8.446 and 0.2359 and 0.07888 and 0.01718 and -0.4841 and -1.204 and -0.2743
Fig_S10d concentration-response source data, compound alone (replicates) (DRD1; Log[Drug] -9): 0.9179 and 0.03861 and 0.7078 and 0.082 and -0.04373 and 0.0164 and -1.424 and -1.237 and -0.4972
Fig_S10d concentration-response source data, compound alone (replicates) (DRD1; Log[Drug] -9.52): 0.9179 and 1.428 and 0.9008 and 0.3038 and -0.1367 and -0.264 and -0.706 and -1.205 and -0.04775
Fig_S10d concentration-response source data, compound alone (replicates) (DRD1; Log[Drug] -10): -0.2788 and -0.1244 and 1.737 and -0.3538 and -0.2647 and 0.1437 and -1.4279 and -0.8642 and -0.7996
Fig_S10d concentration-response source data, compound alone (replicates) (DRD1; Log[Drug] -10.52): -0.2788 and 0.2273 and 1.767 and 0.02109 and 0.9895 and -0.1132 and 0.1507 and -0.4242 and -0.1601
Fig_S10d concentration-response source data, compound alone (replicates) (DRD1; Log[Drug] -11): 0.5834 and 0.2231 and 0.5491 and -0.5092 and -0.2671 and 0.4842 and -1.071 and -0.647 and 0.1395
Fig_S10d concentration-response source data, compound alone (replicates) (DRD1; Log[Drug] -11.52): -0.1115 and 1.072 and 4.68 and 0.05545 and 0.239 and 0.3608 and 3.618 and -0.7331 and -0.985
Fig_S10d concentration-response source data, compound alone (replicates) (DRD1; Log[Drug] -12): -0.2702 and -0.1115 and 0.3903 and -0.474 and -0.4764 and -0.3218 and 3.0206 and -0.9897 and -0.8633
β-arrestin2 recruitment response, agonist mode (normalized) (DRD5; Log[Drug] -6.52): 50.9959 and 44.5818 and 81.7753 and 73.11 and 53.8362
β-arrestin2 recruitment response, agonist mode (normalized) (DRD5; Log[Drug] -7): 44.4286 and 33.2805 and 57.3924 and 47.0403 and 55.7358 and 61.3062 and 41.0525 and 43.6565
β-arrestin2 recruitment response, agonist mode (normalized) (DRD5; Log[Drug] -7.52): 33.6662 and 25.4134 and 56.8006 and 39.9881 and 23.8046 and 44.1458 and 17.6483 and 11.4811
β-arrestin2 recruitment response, agonist mode (normalized) (DRD5; Log[Drug] -8): 7.481 and 4.412 and 28.4866 and 15.182 and 15.3449 and 6.879 and 1.575 and 2.947
β-arrestin2 recruitment response, agonist mode (normalized) (DRD5; Log[Drug] -8.52): 7.423 and 8.3056 and 10.7658 and 9.092 and 10.1938 and 2.126 and 2.041 and 8.64
β-arrestin2 recruitment response, agonist mode (normalized) (DRD5; Log[Drug] -9): 0.5231 and -1.384 and 1.379 and 3.9644 and 2.988 and 7.407 and -1.292 and -1.934 and 0.3332
β-arrestin2 recruitment response, agonist mode (normalized) (DRD5; Log[Drug] -9.52): 0.9986 and 0.1427 and 0.1268 and 2.609 and 1.523 and 1.227 and -2.233 and -1.075 and -0.4405
β-arrestin2 recruitment response, agonist mode (normalized) (DRD5; Log[Drug] -10): -2.61 and -1.543 and -0.2906 and 1.406 and 1.213 and 1.593 and -1.565 and -1.034 and 0.3624
β-arrestin2 recruitment response, agonist mode (normalized) (DRD5; Log[Drug] -10.52): 3.973 and -1.363 and 0.9616 and 3.254 and 1.908 and 2.385 and -0.2872 and 0.4781 and -0.9479
β-arrestin2 recruitment response, agonist mode (normalized) (DRD5; Log[Drug] -11): -1.141 and 0.9563 and 6.05 and 0.4043 and -0.1448 and 1 and -1.291 and -1.255 and 0.5855
β-arrestin2 recruitment response, agonist mode (normalized) (DRD5; Log[Drug] -11.52): 0.7872 and 1.828 and -1.791 and 1.074 and 2.305 and 1.525 and -1.001 and -2.087 and -0.1993
β-arrestin2 recruitment response, agonist mode (normalized) (DRD5; Log[Drug] -12): -1.5322 and -0.4861 and -0.05283 and -0.02136 and -0.01028 and 2.843 and -2.166 and -0.9521 and 0.6036
